Results as given in ChEMBL document CHEMBL1130361, “Homology modeling of the ampa receptor: A quantitative predictive tool for the design of novel antagonists” (Bioorg Med Chem Lett, 1997).

Target: Glutamate receptor ionotropic AMPA (Homo sapiens, UniProt P42261+P42262+P42263+P48058)
Description: Binding affinity against AMPA receptor using [3H]- AMPA radioligand

For Oc1nc2ccc3c(c2nc1O)CCCN3, which IC50 is on record?
The IC50 was 24000 nM.

How did the IC50 turn out when O=[N+]([O-])c1ccc2nc(O)c(O)nc2c1 was run?
The IC50 was 2000 nM.

CN1Cc2c(S(=O)(=O)N(C)C)cc3c(N=O)c(O)[nH]c3c2C1 was tested. Which IC50 did it give?
Its IC50 is 700 nM.

Which IC50 does the source give for C[C@@]12CC[C@H](CCc3nnn[nH]3)C[C@]1(C)CC(C(=O)O)NC2 (some centres not stated) here?
Its IC50 is 1350 nM.

Which IC50 does the source give for CN1CCc2c([N+](=O)[O-])cc3[nH]c(=O)c(=O)[nH]c3c2C1 here?
Its IC50 is 80 nM.

With CCN1CCc2c([N+](=O)[O-])cc3[nH]c(=O)c(=O)[nH]c3c2C1 as the compound, how does the IC50 read?
The IC50 was 166 nM.

How did the IC50 turn out when C[C@@]12CC[C@H](CS(=O)(=O)c3nc[nH]n3)C[C@]1(C)CC(C(=O)O)NC2 (some centres not stated) was run?
The IC50 was 630 nM.

For COC(=O)c1cc2nc(O)c(O)nc2c2c1CN(C)CC2, which IC50 is on record?
Its IC50 is 44000 nM.

For O=C1Nc2c(ccc3c2CCCC3)/C1=N/O, which IC50 is on record?
The IC50 was 7200 nM.

With CC(C)N1CCc2c([N+](=O)[O-])cc3[nH]c(=O)c(=O)[nH]c3c2C1 as the compound, how does the IC50 read?
The IC50 was 153 nM.

CN1CCc2c(-c3ccc([N+](=O)[O-])cc3)cc3c(c2C1)NC(=O)/C3=N\O was tested. Which IC50 did it give?
The IC50 was 150 nM.

C[C@@]12CC[C@H](CSc3nn[nH]n3)C[C@]1(C)CC(C(=O)O)NC2 (some centres not stated) was tested. Which IC50 did it give?
Its IC50 is 580 nM.
